{
  "source": "patent US20110195845A1",
  "about": "“Constructs for Expressing Herbicide Tolerance Genes, Related Plants, and Related Trait Combinations” (Dow AgroSciences LLC, priority 2008, published 2011)",
  "key": {"[1]": {"system": "E. coli DH5α", "experiment": "Bacterial strain response to glufosinate on minimal media", "format": "cell-based, Escherichia coli", "set-up": "key: +++ = Heavy Lawn Growth; ++ = Light lawn growth; + = patchy lawn growth; −− = No Growth", "settings": "24 hrs @ 37 C", "procedure": "(§1) Selected cell lines of Escherichia coli and Agrobacterium tumefaciens were inoculated on minimal media containing incrementally increasing concentrations of Glufosinate (BASTA). The cell lines; BL21-Star (DE3), Top10, DH5α, Agrobacterium tumefaciens C58, and Agrobacterium tumefaciens LBA4404s were initially grown up on complex media. The Escherichia coli strains were grown in LB and the Agrobacterium tumefaciens strains were grown in YEP. Five microliters of bacterial culture was inoculated and dispersed evenly onto minimal media plates containing various concentrations of glufosinate. The concentrations consisted of 0 μg/ml, 250 μg/ml, 500 μg/ml, 1000 μg/ml, 2000 μg/ml, and 4000 μg/ml of BASTA. In addition, the bacterial strains were inoculated onto a plate of complex media as a control—Agrobacterium tumefaciens strains were inoculated on YEP agar plates, and Escherichia coli strains were inoculated on LB agar plates. The plates containing the Escherichia coli strains were incubated at 37° C. for 24 hours. The plates containing the Agrobacterium tumefaciens strains were incubate at 25° C. for 48 hours. […] Table 7 illustrates the capability of the various strains to grow on minimal media containing glufosinate."}, "[2]": {"system": "E. coli Top10", "experiment": "Bacterial strain response to glufosinate on minimal media", "format": "cell-based, Escherichia coli", "set-up": "key: +++ = Heavy Lawn Growth; ++ = Light lawn growth; + = patchy lawn growth; −− = No Growth", "settings": "24 hrs @ 37 C", "procedure": "as §1"}, "[3]": {"system": "Escherichia coli BL21-Star (DE3) expressing PAT (v3)", "experiment": "Complementation of cell growth on glufosinate, pDAB4434 (PAT v3)", "format": "cell-based", "set-up": "key to the marks not given beside the values", "settings": "24 hrs @28 C, 20 uM IPTG", "text": "A pET28a(+) expression plasmid containing PAT (v3) was constructed as a positive control. PAT (v3) was cloned as an NcoI-SacI fragment into corresponding restriction sites of pDAB779. Positive clones containing the PAT (v3) gene fragment were verified via restriction enzyme digestion. This construct was labeled as pDAB4434.\nThe plasmids, pDAB4434, pDAB4412, and an empty pET vector (control) were transformed into Escherichia coli BL21-Star (DE3) bacterial cells. Expression cultures were initiated with 10-200 freshly transformed colonies into 250 mL LB medium containing 50 μg/ml antibiotic and 75 μM IPTG (isopropyl-[…]). The cultures were grown at 28° C. for 24 hours at 180-200 rpm. Five microliters of the culture was inoculated onto a complex media control and minimal media containing incrementally increasing concentrations of glufosinate and 20 μM IPTG. The cultures were dispersed evenly over the plates and incubated at 28° C. for 24 hours."}, "[4]": {"system": "NT-1 tobacco suspension cells treated with DSM-2 (v2) (pDAB3778)", "experiment": "NT-1 tobacco cell transformation, selection on bialaphos or glufosinate ammonium", "format": "cell-based", "procedure": "Four days prior to transformation, a 1 week old NT-1 tobacco suspension, which was being subcultured every 7 days, was subcultured to fresh medium by adding 2 ml of the NT-1 culture or 1 ml of packed cells into 40 ml NT-1 B media. The subcultured suspension was maintained in the dark at 25±1° C. on a shaker at 125 rpm.\nA 50% glycerol stock of Agrobacterium tumefaciens [strain LBA4404] harboring a binary vector of interest was used to initiate a liquid overnight culture by adding 20, 100, or 500 μl to 30 ml YEP liquid (10 g/L yeast extract, 10 g/L Peptone, 5 g/L NaCl, 0-10 g/L Sucrose) containing 50-100 mg/L spectinomycin. The bacterial culture was incubated in the dark at 28° C. in an incubator shaker at 150-250 rpm until the OD600 was 1.5+0.2. This took approximately 18-20 hrs.\nFor each vector tested, 20-70 mL of 4-day old suspension cells were transferred into a sterile vessel, to which 500-1750 μl of Agrobacterium suspension at the proper OD was added. To ensure a uniform mixture was achieved, the cells were pipetted up and down 5 times with a 10 ml wide-bore pipet. The uniform suspension was then drawn up into a 25 ml barrel of a repeat pipetter and 250 μl of the suspension was dispensed per well into 24-well plates, continuing until the suspension was exhausted. The well plates were wrapped in parafilm and cultured in the dark at 25±1° C. without shaking for a 3 day co-cultivation.\nFollowing the co-cultivation, all excess liquid was removed from the individual wells with a 1 mL pipet tip, and remaining cells were resuspended in 1 ml NTC liquid (NT-1 B medium containing 500 mg/L carbenicillin, added after autoclaving). The contents of an individual well were dispersed across the entire surface of 100×25 mm selection plates using disposable transfer pipets. Selection media consisted of NTC media solidified with 8 g/l TC agar supplemented with 7.5 to 15 mg/L bialaphos or technical grade glufosinate ammonium, added after autoclaving. All selection plates, left unwrapped, were maintained in the dark at 28° C.\nPutative transformants appeared as small clusters of callus on a background of dead, non-transformed cells. Calli were isolated approximately 2-6 weeks post-transformation. Each callus isolate was transferred to its own 60×20 mm plate containing the same selection medium and allowed to grow for approximately 2 weeks before being submitted for analysis."}},
  "data": [
    {"compound": "CP(=O)(O)CCC(N)C(=O)O", "note": "(stereo not shown) [glufosinate]", "values": [
      {"measurement": "bacterial growth on minimal media", "setting": "[1]; 250 μg/ml BASTA", "value": "+++"},
      {"measurement": "bacterial growth on minimal media", "setting": "[1]; 500 μg/ml BASTA", "value": "+++"},
      {"measurement": "bacterial growth on minimal media", "setting": "[1]; 1000 μg/ml BASTA", "value": "+++"},
      {"measurement": "bacterial growth on minimal media", "setting": "[1]; 2000 μg/ml BASTA", "value": "+++"},
      {"measurement": "bacterial growth on minimal media", "setting": "[1]; 4000 μg/ml BASTA", "value": "−−"},
      {"measurement": "bacterial growth on minimal media", "setting": "[2]; 250 μg/ml BASTA", "value": "+++"},
      {"measurement": "bacterial growth on minimal media", "setting": "[2]; 500 μg/ml BASTA", "value": "+++"},
      {"measurement": "bacterial growth on minimal media", "setting": "[2]; 1000 μg/ml BASTA", "value": "+++"},
      {"measurement": "bacterial growth on minimal media", "setting": "[2]; 2000 μg/ml BASTA", "value": "+"},
      {"measurement": "bacterial growth on minimal media", "setting": "[2]; 4000 μg/ml BASTA", "value": "−−"},
      {"measurement": "bacterial growth on minimal media", "setting": "[3]; 250 μg/ml BASTA", "value": "+++"},
      {"measurement": "bacterial growth on minimal media", "setting": "[3]; 500 μg/ml BASTA", "value": "+++"},
      {"measurement": "bacterial growth on minimal media", "setting": "[3]; 1000 μg/ml BASTA", "value": "+++"},
      {"measurement": "bacterial growth on minimal media", "setting": "[3]; 2000 μg/ml BASTA", "value": "+++"},
      {"measurement": "bacterial growth on minimal media", "setting": "[3]; 4000 μg/ml BASTA", "value": "+++"},
      {"measurement": "Transformation frequency (% of selection plates producing at least one callus) after coding region PCR", "setting": "[4]; 7.5 mg/L selection agent", "value": 55.6, "unit": "%"},
      {"measurement": "Transformation frequency (% of selection plates producing at least one callus) after coding region PCR", "setting": "[4]; 10 mg/L selection agent", "value": 50.0, "unit": "%"},
      {"measurement": "Transformation frequency (% of selection plates producing at least one callus) after coding region PCR", "setting": "[4]; 12.5 mg/L selection agent", "value": 44.4, "unit": "%"},
      {"measurement": "Transformation frequency (% of selection plates producing at least one callus) after coding region PCR", "setting": "[4]; 15 mg/L selection agent", "value": 38.9, "unit": "%"}
    ]}
  ]
}
